Results as given in patent US5489609A (Zaidan Hoijn Seisan Kaihatsu Kagaku Kenkyusho, priority 1992, dated 1996).

Columns and labels:
[1] = tested on: Hepatopathy in mice (carbon tetrachloride); assay: Anti-hepatitis test: hepatopathy in mice (carbon tetrachloride); type: in vivo, ddy strain male mice; settings: for ALT, mean ± S.D. / AST, mean ± S.D.: 200 mg/kg orally 3 h after carbon tetrachloride, blood 24 h after carbon tetrachloride, * p < 0.05; for suppressory activity (hepatopathy in mice): 200 mg/kg orally, in words
Description: A group of 8 ddy strain male mice (weighing about 30 g) kept fasting from the previous day was treated by intraperitoneal injection of 0.5% carbon tetrachloride in olive oil at a dose of 0.6 ml and thereafter allowed free access to food. Three hours after the administration of carbon tetrachloride, the test compound suspended in powdered gum arabic was given to the animals orally at a dose of 200 mg/kg, and blood samples were drawn from the mice under anesthesia with ether through the abdominal descending aorta 24 hours after the administration of carbon tetrachloride. The collected blood was centrifuged at a rate of 3,000 rpm for 15 min, followed by measurement of the activities of aspartate transaminase (AST) and alanine transaminase (ALT) by means of the Lippie method.

[2] = tested on: isolated liver cells of rats; assay: Disorder of isolated liver cells (carbon tetrachloride vapor; ALT and AST leached out); type: cell-based; settings: for ALT, mean ± S.D. / AST, mean ± S.D.: 37° C., 30 min, * p < 0.05
Description: Isolated liver cells of rats were prepared by means of the Segren's collagenase irrigation method, whereby a liver cell suspension was prepared to a concentration of […]. Into 2 ml of the suspension placed in an Erlenmeyer flask was put a test tube of about 0.5 ml capacity containing a 25% carbon tetrachloride solution in olive oil to saturate the reaction system with carbon tetrachloride vapor, and after the flask was tightly stoppered, preincubation was carried out at 37° C. for 30 min. One ml of a solution of the test compound in Hunk's solution was added to the suspension of liver cells, while 1 ml of Hunk's solution was added to a control. After the reaction was allowed to proceed at 37° C. for 30 min, a specifically determined volume of the reaction solution was pipetted out and immediately centrifuged under 500 g for 30 seconds, and ALT and AST leached out into the supernatant liquid were determined for activity by the Lippie method.

acetaldehyde toxicity = assay: Protective activity against acetaldehyde toxicity (death rate within 24 hours); type: in vivo, Rats; settings: for Death rate / No. of dead animals (n/10): 30 min before acetaldehyde 1,200 mg/kg, 24 h
Description: Rats kept fasting with a supply of drinking water were weighed and divided into groups in such a manner that the mean body weight was uniform among the groups, with each group consisting of 10 heads. The rats were given acetaldehyde orally at a dose of 1,200 mg/kg, and the death rate within 24 hours was determined, wherein the test drug substances were administered orally 30 min before the application of acetaldehyde, with the vehicle (0.5% aqueous sodium carboxymethylcellulose) alone being given to a control group.

[3] = tested on: Stomach injury with hydrochloric acid/ethanol; assay: Anti-ulcer test: stomach injury with hydrochloric acid/ethanol; type: in vivo, male rats of KBL Wistar strain
Description: The rats were divided into groups each consisting of 8 heads in such a way that their mean body weights were nearly uniform among the groups, treated by oral administration of hydrochloric acid/ethanol (0.15 mole hydrochloric acid solution in 80% ethanol) at a dose of 5 ml/kg body weight and sacrificed through cervical vertebrae dislocation 1 hour after administration. The stomachs were removed and treated with formalin, and individual ulcers formed in the glandular portion of the stomach were measured in length (mm), with the measured ulcer lengths summed for each rat. The test compound was suspended in a 0.5% aqueous solution of sodium carboxymethylcellulose, and the suspension was given to the test group orally at a dose of 10 ml/kg body weight 30 min before administration of hydrochloric acid/ethanol, whereas the vehicle (0.5% aqueous sodium carboxymethyl-cellulose) alone was applied to a control group.

[4] = tested on: Stomach injury through water-immersion constraint stress; assay: Anti-ulcer test: stomach injury through water-immersion constraint stress; type: in vivo, male rats of KBL Wistar strain
Description: The rats were divided into groups each consisting of 8 heads in such a way that their mean body weights were nearly uniform among the groups, stress-loaded by soaking the animals placed in a stress cage of Univ. of Tokyo type in a water tank at 23° C. up to the xiphoid and then sacrificed through cervical vertebrae dislocation 7.5 hours later. The stomachs were removed and treated with formalin, and individual ulcers formed in the glandular portion of the stomach were measured in length (mm), with the measured ulcer lengths being summed for each rat. The test compound, suspended in a 0.5% aqueous solution of sodium carboxymethylcellulose, was given to the test group orally at a dose of 10 ml/kg body weight 30 min before the water-soaking constraint, whereas the vehicle alone was applied to a control group.

[5] = tested on: Rats of KBL Wistar strain; assay: Acute toxicity test; type: in vivo; settings: 7 day period
Description: Rats of KBL Wistar strain (weighing about […]), divided into groups each consisting of 3 heads, were treated through oral administration of the test compound suspended in powder gum arabic, followed by observation for any abnormalities over a 7 day period to find the number of dead animals.

[6] = Pharmacological tests (general statement on anti-hepatitis, liver function and anti-ulcer activity); type: in vivo; settings: in words
[7] = conc. of test soln. 0.0125 mg/dl
[8] = conc. of test soln. 0.025 mg/dl
[9] = 50 mg/kg orally, vs Vehicle No. 1

With `N[C@@H](CCC(=O)N[C@@H](CS)C(=O)NCC(=O)O)C(=O)O` [Glutathione] the “ALT, mean ± S.D.” value [1] was 12030.2 ± 1204.5 IU, the “AST, mean ± S.D.” value [1] was 11423.3 ± 1960.8 IU and the “suppressory activity (hepatopathy in mice)” value [1] was “none of 2-aminoethanesulfonic acid, glutathione and glycyrrhizin that were used as controls at the same dose developed suppressory activity”.

With `CC1(C)[C@@H](O[C@H]2O[C@H](C(=O)O)[C@@H](O)[C@H](O)[C@H]2O[C@@H]2O[C@H](C(=O)O)[C@@H](O)[C@H](O)[C@H]2O)CC[C@]2(C)[C@H]3C(=O)C=C4[C@@H]5C[C@@](C)(C(=O)O)CC[C@]5(C)CC[C@@]4(C)[C@]3(C)CC[C@@H]12` [Glycyrrhizin] the “ALT, mean ± S.D.” value [1] was 13362.1 ± 1753.1 IU, the “AST, mean ± S.D.” value [1] was 12367.6 ± 1102.1 IU and the “suppressory activity (hepatopathy in mice)” value [1] was “none of 2-aminoethanesulfonic acid, glutathione and glycyrrhizin that were used as controls at the same dose developed suppressory activity”.

With `NCCS(=O)(=O)[O-].NCCS(=O)(=O)[O-].[Zn+2]` [TTZ, Bis(2-aminoethanesulfonic acid)zinc] the “ALT, mean ± S.D.” value [1] was 8899.4 ± 927.9 IU, the “AST, mean ± S.D.” value [1] was 7256.9 ± 1464.7 IU and the “suppressory activity (hepatopathy in mice)” value [1] was “significant suppressory activity equal to that of FTZ”. For the same compound, the “ALT, mean ± S.D.” value [2, 7] was 944.7 ± 61.7 IU, the “AST, mean ± S.D.” value [2, 7] was 327.9 ± 36.6 IU and the “ALT, mean ± S.D.” value [2, 8] was 637.2 ± 93.7 IU. The “AST, mean ± S.D.” value [2, 8] was 125.7 ± 48.2 IU, the “ALT, mean ± S.D.” value ([2]; conc. of test soln. 0.05 mg/dl) was 649.1 ± 42.4 IU and the “AST, mean ± S.D.” value ([2]; conc. of test soln. 0.05 mg/dl) was 68.2 ± 7.5 IU. The “ALT, mean ± S.D.” value ([2]; conc. of test soln. 0.1 mg/dl) was 525.1 ± 26.0 IU, the “AST, mean ± S.D.” value ([2]; conc. of test soln. 0.1 mg/dl) was 44.3 ± 11.1 IU and the “suppressory activity (isolated liver cells)” value ([2]; in words) was “suppressory activity equal to that of FTZ but clearly superior to that of 2-aminoethanesulfonic acid alone”. For the same compound, the Death rate (acetaldehyde toxicity; 150 mg/kg orally) was 30%, the “No. of dead animals (n/10)” value (acetaldehyde toxicity; 150 mg/kg orally) was 3/10 and the Death rate (acetaldehyde toxicity; 300 mg/kg orally) was 0%. For the same compound, the “No. of dead animals (n/10)” value (acetaldehyde toxicity; 300 mg/kg orally) was 0/10, the “protective activity against the lethal toxicity of acetaldehyde” value (acetaldehyde toxicity; in words) was “distinct protective activity against the lethal toxicity of acetaldehyde at lower doses than FTZ, which activity was shown to be more potent than that of 2-aminoethanesulfonic acid” and the Incidence of ulcer ([3]; 12.5 mg/kg orally) was 8/8. The “Ulcer coefficient (mm) mean ± S.E.” value ([3]; 12.5 mg/kg orally) was 32.2 ± 4.9 mm, the Suppression % ([3]; 12.5 mg/kg orally, vs Vehicle No. 3) was 11.8% and the Incidence of ulcer ([3]; 25 mg/kg orally) was 8/8. For the same compound, the “Ulcer coefficient (mm) mean ± S.E.” value ([3]; 25 mg/kg orally) was 24.6 ± 8.8 mm, the Suppression % ([3]; 25 mg/kg orally, vs Vehicle No. 2) was 63.3% and the Incidence of ulcer ([3]; 50 mg/kg orally) was 5/8. The “Ulcer coefficient (mm) mean ± S.E.” value ([3]; 50 mg/kg orally, * P < 0.01) was 2.2 ± 1.1 mm, the Suppression % [3, 9] was 96.3% and the “suppressory activity in the antiulcer test” value ([3]; in words, refers to both anti-ulcer tests) was “improved suppressory activity in the antiulcer test, as compared with FTZ used as a control”. The “UD50 (mg/kg) (95% C.L.)” value ([3]; oral, 30 min before hydrochloric acid/ethanol) was 22.8 mg/kg, the Incidence of ulcer ([4]; 50 mg/kg orally) was 8/8 and the “Ulcer coefficient (mm) mean ± S.E.” value ([4]; 50 mg/kg orally) was 19.9 ± 4.6 mm. The Suppression % [4, 9] was 37.6%, the Incidence of ulcer ([4]; 100 mg/kg orally) was 8/8 and the “Ulcer coefficient (mm) mean ± S.E.” value ([4]; 100 mg/kg orally, * p < 0.01) was 9.8 ± 2.3 mm. For the same compound, the Suppression % ([4]; 100 mg/kg orally, vs Vehicle No. 2) was 57.2%, the Incidence of ulcer ([4]; 150 mg/kg orally) was 8/8 and the “Ulcer coefficient (mm) mean ± S.E.” value ([4]; 150 mg/kg orally, ** p < 0.01) was 7.6 ± 1.4 mm. For the same compound, the Suppression % ([4]; 150 mg/kg orally, vs Vehicle No. 3) was 78.1%, the “UD50 (mg/kg) (95% C.L.)” value ([4]; oral, 30 min before water-soaking constraint) was 72.8 mg/kg and the “Nd/No (No. of dead animals / total No.)” value ([5]; 1,250 mg/kg oral) was 0/3. For the same compound, the “Nd/No (No. of dead animals / total No.)” value ([5]; 2,500 mg/kg oral) was 0/3, the “Nd/No (No. of dead animals / total No.)” value ([5]; 5,000 mg/kg oral) was 0/3 and the death of animals ([5]; doses up to 5,000 mg/kg oral, in words) was “did not cause any animal to die”. The “anti-hepatitis, liver function improving and anti-ulcer activity” value [6] was “more markedly potent anti-ulcer activity as well as comparable anti-hepatitis and liver function improving activities”.
